Series [1] has as its system NCI H82 variant small-cell cancer cell xenografts. The series is described as follows: NCI H82 xenografts treated with ifenprodil. The class given is in vivo, nu/nu mice. On the procedure: Male nu/nu mice were injected subcutaneously with NCI H82 variant small-cell cancer cells (˜10^7 cells/mouse) representing recurrent disease, and tumors became obvious after 2-3 weeks, and commenced growing rapidly. Animals were divided into two groups.
In another set of experiments, NCI H82 tumors were pretreated with cyclophosphamide for three days (single dose of 75 mg/kg body weight) before a single daily dose of i.p. ifenprodil (2.5 mg/kg) commenced.

The next series relates to DMS-53 cells. The series is described as follows: Cell growth/viability assay (Alamar Blue). The class given is cell-based, human. The conditions noted are these: for effect on cell viability (in words): DMS-53, 48 hours, concentration range used. In general terms: Alamar Blue is a resazurin reagent that responds to reducing activity.
Series [2] has as its system NCI-H345 classical SCLC cells. As to the kind of experiment: Cell growth/viability assay (Alamar Blue). On the procedure: Cultures of NCI-H345, NCI-H146, DMS-53 cells (classical cell lines), and NCI-H82 cells (variant cell line) were treated with 0.05% trypsin, washed in phosphate buffered saline (PBS)/glycine and plated onto 96-well plates at 10^4 cells/well in medium for 24 hours to provide time for rectifying possible damage to membrane proteins from the trypsinization. The wells were washed and incubated with PBS/glycine containing albumin (1.25 mg/mL) in the presence or absence of different concentrations (25 μM-800 μM) of either the NMDAR 1 antagonists, Memantine or MK-801; or the NMDAR2B antagonists Ifenprodil and Ro 25-6981 (binders to the polyamine site), or the NMDAR2B antagonists L-701,252 and L-701,324 (binders to the glycine site), or vehicle; and Alamar Blue (1:10 dilution following manufacturer's recommendation). Fluorescent readings were taken at periods representing 24, 48, and 72 hours of incubation with antagonist using a Synergy HT Multi-Detection Microplate Reader and excitation/emission wavelengths of 530 nm and 590 nm. Cell viability was evaluated as % vehicle control at the corresponding incubation time.
This peptide domain is represented in that portion of the mRNA message sequenced by RT-PCR. For studies on cell proliferation, the IgGs of this antiserum were first isolated by precipitation with 50% saturated ammonium sulfate, and antibodies purified from these immunoglobulins by affinity chromatography using a column containing the peptide component of the above antigen coupled to SEPHAROSE (Friedmann, et al. (1994) supra; Keegan, et al. (2002) supra).

Series [3] has as its system NCI-H82 variant SCLC cells. The series is described as follows: Cell growth/viability assay (Alamar Blue). The class given is cell-based, human. The conditions noted are these: for IC50: read-out: IC50, cell viability; for Cell viability reduced to: NCI-H82, 24, 48, and 72 hours incubation.
Description: (§3) Cultures of NCI-H345, NCI-H146, DMS-53 cells (classical cell lines), and NCI-H82 cells (variant cell line) were treated with 0.05% trypsin, washed in phosphate buffered saline (PBS)/glycine and plated onto 96-well plates at 10^4 cells/well in medium for 24 hours to provide time for rectifying possible damage to membrane proteins from the trypsinization. […] Fluorescent readings were taken at periods representing 24, 48, and 72 hours of incubation with antagonist using a Synergy HT Multi-Detection Microplate Reader and excitation/emission wavelengths of 530 nm and 590 nm. Cell viability was evaluated as % vehicle control at the corresponding incubation time.
The test system of series [4] is human LA-N-2 neuroblastoma cells. The settings on record: cited from earlier work.
For series [5], the system named is human LA-N2 neuroblastoma cells. The settings on record: in the presence of glycine; cited from earlier work.
The test system of the next series is NCI-H146 cells. The series is described as follows: Cell growth/viability assay (Alamar Blue). The class given is cell-based, human.
For a further series, the system named is LAN2 neuroblastoma cells. The series is described as follows: Alamar Blue growth study. The class given is cell-based, human. The settings on record: LAN2, in the presence of glycine over 24 hours. On the procedure: (§1) Results represent triplicate studies performed with Alamar Blue on LAN2 neuroblastoma, MCF-7 breast cancer, and SKBr3 breast cancer cells examining the growth influence of 1 mM glutamate in the presence of glycine over 24 hours.
(§2) Results represent triplicate studies performed with Alamar Blue on LAN2 neuroblastoma, MCF-7 breast cancer, and SKBr3 breast cancer cells examining the growth influence of 100 mM Mg^++ in the presence of glycine over 24 hours.

Series [6] has as its system SKBr3 breast cancer cells. As to the kind of experiment: Alamar Blue growth/proliferation study. The class given is cell-based, human. The conditions noted are these: for effect on cell growth/proliferation (in words): SKBr3, in the presence of glycine over 24 hours. On the procedure: as §1, §2
In series [7] the test system is MCF-7 breast cancer cells. The series is described as follows: Alamar Blue growth/proliferation study. The class given is cell-based, human. The settings on record: for effect on cell growth/proliferation (in words): MCF-7, in the presence of glycine over 24 hours.
Where [8] appears, read: 2.5 mg/kg once daily intraperitoneally.
Setting [9] is: Homo sapiens, NCI-H345, 48 h, read-out: IC50, cell viability.
Where [10] appears, read: Homo sapiens, NCI-H345, read-out: IC50, cell viability.
[11] abbreviates: Homo sapiens, NCI-H82, 48 and 72 hours of incubation, Alamar Blue (figure legend).
Setting [12] is: Homo sapiens, NCI-H82, at 48 hours.

Molecules are shown by their SMILES. Like-named read-outs stand apart in the source and are kept apart here.

Description for DMS-53 cells: as §3
Description for NCI-H146 cells: as §3

With `CC(C(O)c1ccc(O)cc1)N1CCC(Cc2ccccc2)CC1` (centres unmarked) [Ifenprodil], the “time tumors maintained sizes of less than their original size” value in series [1] (setting [8]) was about 10 days. For the same molecule, the “tumor size by 2 weeks of treatment” value in series [1] (setting [8]) is under 2 times their original size. Further, in [1] (setting [8]), the “tumors first shrank to” value is given as ~80 % of their original size. Moreover, the “tumor growth vs saline-treated control mice (in words)” value in [1] (ifenprodil alone) is “inhibits the growth”. Moreover, the “body weight compared to saline-treated animals” value in [1] (over 8 days of drug treatment) is listed as “no change in body weight”. For the same molecule, the “effect on cell viability (in words)” value in the series on DMS-53 cells is “smaller decreases”. Further, the “Cell viability reduced to” value in series [2] and in series [3] was “about 10 % of control” throughout. For the same molecule, the IC50 (commonly the concentration that gives 50% inhibition) in series [2] (setting [9]) was about 150 µM; in series [2] (setting [10]), 150 to 200 µM; in series [3] (setting [11]) it was 150 to 200 µM; in series [3] (setting [12]) it was about 150 µM.
Take `O=c1[nH]c2cc(Cl)ccc2c(O)c1-c1cccc(Oc2ccccc2)c1` [L-701,324]: the “increase in cell viability to” value is “approximately 140 % of control” in [2] (NCI-H345, at 48 hours) and “approximately 120 % of control” in series [3] (NCI-H82, at 48 hours).
Regarding `NC(=O)c1ccccc1C(=O)N[C@@H](CCC(=O)O)C(=O)O` [NPG, N-phthalamoyl-L-glutamic acid], the values for the Cell cytotoxicity increased in [4] (incubation at 0.1 mM) and in [4] (incubation at 1 mM) were 28% and 46%, respectively. Also, the “inward sodium current increased” value in [5] was 1.5 ×.
Consider `CC(C(O)c1ccc(O)cc1)N1CCC(Cc2ccccc2)CC1` (centres unmarked) [Ro 25-6981], for which the “effect on cell viability (in words)” value in the series on NCI-H146 cells (NCI-H146, 48 hours, concentration range used) is recorded as “no clear effects”; with DMS-53 cells (listed as Ro 25-698), “no clear effects”. In addition, the IC50 in series [2] (read-out: IC50, cell viability, NCI-H345, at 48 hours) is about 200 µM; in series [3] (NCI-H82, at 48 hours), about 200 µM.
`N[C@@H](CCC(=O)O)C(=O)O` [glutamate, L-glutamic acid]: the “effect on cell growth/proliferation (in words)” value in the series on LAN2 neuroblastoma cells is “decreased cell growth”; in [6], “increased proliferation”; in [7] it was “increased proliferation”. The Cell cytotoxicity increased is 27% in series [4] (incubation at 1 mM) and 37% in series [4] (incubation at 10 mM). In addition, in series [5], the “inward sodium current increased” value was 1.5 ×.
Consider `[Mg+2]` [magnesium], for which the “effect on cell growth/proliferation (in words)” value (with LAN2 neuroblastoma cells; in series [6]; in [7]) was “significantly inhibited proliferation” each time.
For the molecule `CC12CC3CC(C)(C1)CC(N)(C3)C2` [memantine], the IC50 in the series on NCI-H146 cells (Homo sapiens, NCI-H146, at 48 hours, read-out: IC50, cell viability) is 400 µM; in the series with DMS-53 cells (Homo sapiens, DMS-53, at 48 hours, read-out: IC50, cell viability) it was 800 µM; in series [2] (setting [9]), 80 to 130 µM; in series [2] (setting [10]) it was 80 to 100 µM; in [3] (setting [11]) it was 80 to 100 µM; in [3] (setting [12]) it was 80 to 130 µM. Further, the “effect on proliferation (in words)” value in [6] (SKBr3, NMDAR1 antagonist treatment) is given as “decreased the proliferation”; in [7] (MCF-7, NMDAR1 antagonist treatment), “decreased the proliferation”. Moreover, the “Cell viability reduced to” value in series [2] and in series [3] was “about 10 % of control” each time. Besides, the “Proliferation of MCF-7 Cells Percent Fluorescence Compared to Control” value amounted to 92.86 ± 6.08% in [7] (100 μM, 24 Hours); 89.98 ± 5.30% in [7] (100 μM, 48 Hours); 88.48 ± 4.02% in series [7] (100 μM, 72 Hours); 73.51 ± 5.64% in series [7] (200 μM, 24 Hours); 49.78 ± 6.85% in series [7] (200 μM, 48 Hours); 46.62 ± 7.04% in series [7] (200 μM, 72 Hours). Further, the “Proliferation of MCF-7 Cells Percent Fluorescence Compared to Control” value was determined as 48.81 ± 5.18% in series [7] (300 μM, 24 Hours); 22.33 ± 5.21% in series [7] (300 μM, 48 Hours); 20.02 ± 4.97% in series [7] (300 μM, 72 Hours); 39.62 ± 5.21% in series [7] (400 μM, 24 Hours); 15.79 ± 4.79% in [7] (400 μM, 48 Hours); 14.38 ± 3.92% in series [7] (400 μM, 72 Hours). The “Proliferation of MCF-7 Cells Percent Fluorescence Compared to Control” value in series [7] (500 μM, 24 Hours) was found to be 38.40 ± 2.98%; in [7] (500 μM, 48 Hours), 14.60 ± 3.21%; in series [7] (500 μM, 72 Hours), 13.40 ± 3.29%; in series [7] (600 μM, 24 Hours), 39.22 ± 4.13%; in series [7] (600 μM, 48 Hours), 15.10 ± 7.28%; in series [7] (600 μM, 72 Hours), 13.66 ± 6.62%. The “Proliferation of MCF-7 Cells Percent Fluorescence Compared to Control” value in series [7] (700 μM, 24 Hours) is recorded as 32.80 ± 2.19%; in [7] (700 μM, 48 Hours) it was 12.51 ± 2.35%; in series [7] (700 μM, 72 Hours) it was 11.89 ± 2.62%; in series [7] (800 μM, 24 Hours), 32.82 ± 2.44%; in [7] (800 μM, 48 Hours), 12.34 ± 2.01%; in series [7] (800 μM, 72 Hours), 11.82 ± 2.25%. In addition, the “Proliferation of MCF-7 Cells Percent Fluorescence Compared to Control” value in series [7] (900 μM, 24 Hours) is given as 32.23 ± 2.13%; in [7] (900 μM, 48 Hours), 12.03 ± 2.15%; in series [7] (900 μM, 72 Hours), 11.57 ± 2.41%. Besides, the “reduce proliferation by” value in series [7] (MCF-7, 0.3 mM, 48 and 72 hours) is “about 80%”.

The values are drawn from patent publication US9694072B2, “Methods for diagnosing and treating neuroendocrine cancer” (Trustees of Dartmouth College, priority 2005, dated 2017).
